# Columns and labels:
# PaPepA [1] = molecular target: T1, PaPepA (Pseudomonas aeruginosa, UniProt Q02RY8); assay: Pre-steady-state stopped-flow kinetics with global fit; format: biochemical; parameters: GG stays after cleavage) (N); made in house; host or cells: E. coli BL21(DE3)
# Method: An Applied Photophysics SX20 stopped-flow spectrofluorimeter was used to perform kinetic measurements under pre-steady-state conditions. The instrument was equipped with a xenon lamp, a 5 μL mixing cell, and a circulating water bath to maintain constant temperature. All reactions were carried out in 100 mM HEPES (pH 8.0) and 50 mM KCl at 25 °C. Enzyme and metal ions were kept in one syringe, while the other substrate (Leu-pNA or Leu-AMC) was kept in the second syringe. The reaction was triggered by rapid mixing of 55 μL from each syringe. Three traces with 10,000 points per trace were collected per experiment.
# For absorbance measurements, product formation was monitored by reading the pNA absorbance at 405 nm (5 mm path length). Multiple turnover rates were measured in the presence of saturating concentrations of both metal and Leu-pNA. PaPepA was present at 1 or 10 μM, MnCl2 was present at 3 mM, and Leu-pNA was present at 250 μM. For fluorescence measurements, a path length of 1 mm was used. Reactions were followed by monitoring the appearance of a 7-amino-4-methylcoumarin (AMC) fluorophore following PaPepA-catalyzed breakdown of Leu-AMC. An excitation wavelength of 341 nm was used with a 400 nm cutoff filter for the emission. Slits were 1 nm for excitation and 2 nm for emission.
# Experiments under single turnover conditions monitored fluorescence change with a detector voltage of 300 V, 0.1 μM Leu-AMC, 1.5 mM MnCl2, and varying PaPepA (0.5, 1, 2, 4, 8, 16, or 32 μM). Experiments under multiple turnover conditions monitored fluorescence change with a detector voltage of 250 V, 50 μM Leu-AMC, 1.2 μM PaPepA and varying concentrations of MnCl2 (0.2, 0.4, 0.6, 1.2, 2.4, 6, 9, 12, 18, 24, 60, 120, 1200, or 3600 μM).
# Calibration curves of known concentrations of AMC were performed at detector voltages of 250 and 300 V. STO and MTO curves were divided by the slope of these calibration curves to convert the change in fluorescence observed to the concentration of AMC produced.
# Pre-steady-state data were imported into KinTek Global Explorer and fit to linear or single-exponential equations using the aFit function to obtain standard deviation estimates. A kinetic model with five steps was considered, and rate constants and outputs were fitted according to this model. Initial estimates for rate constants were based on kcat and KM values. The FitSpace Editor was employed to determine confidence intervals for each of the rate constants. More details including model fitted and parameters used are available in the Supporting Information.
# Supporting information note 4: Kintek Global Explorer fitting of stopped flow data Both MTO and STO pre-steady-state data were fit according to the mode described in Figure 4A with scaling factors for each fluorescent species (EP and P) to account for differences in AMC fluorescence whilst in complex with PaPepA versus free in solution. Scaling factors were different across STO and MTO experiments as both were carried out using different detector voltages.
# The model that best fitted acquired data was as below, where F is metal free enzyme, E1 is PaPepA with one Mn2+ ion, E is PepA with two Mn2+ ions, S is Leu- […]
# For fitting, k1 and k-1 ratios were constrained (linked) based KD for Mn2+ binding as measured by ITC (12nM). Initially, k2 and k-2 were allowed to vary without constraints, and values best fitted as well as Fitspace lower and upper boundaries are reported in Table 2. The value for k1 was best fitted as diffusion limited, and therefore was fixed in further fitting cycles. The best fitted value for k-2 was high and unconstrained, and therefore also fixed at 1000 s-1 for further fitting cycles. k3, k-3, k4, and k5 were not constrained. Multiple iterations of fitting were performed, and best fit values recorded. k1, k2, k3, k-3, k4, and k5 were evaluated using FitSpace Explorer to generate confidence intervals for each of these rate constants. […]
# PaPepA [2] = molecular target: T1, PaPepA; format: biochemical; parameters: GG stays after cleavage) (N); made in house; host or cells: E. coli BL21(DE3)
# [3] = multiple turnover, 50 μM Leu-AMC, […] PaPepA
# T1 sequence (Q02RY8 whole entry): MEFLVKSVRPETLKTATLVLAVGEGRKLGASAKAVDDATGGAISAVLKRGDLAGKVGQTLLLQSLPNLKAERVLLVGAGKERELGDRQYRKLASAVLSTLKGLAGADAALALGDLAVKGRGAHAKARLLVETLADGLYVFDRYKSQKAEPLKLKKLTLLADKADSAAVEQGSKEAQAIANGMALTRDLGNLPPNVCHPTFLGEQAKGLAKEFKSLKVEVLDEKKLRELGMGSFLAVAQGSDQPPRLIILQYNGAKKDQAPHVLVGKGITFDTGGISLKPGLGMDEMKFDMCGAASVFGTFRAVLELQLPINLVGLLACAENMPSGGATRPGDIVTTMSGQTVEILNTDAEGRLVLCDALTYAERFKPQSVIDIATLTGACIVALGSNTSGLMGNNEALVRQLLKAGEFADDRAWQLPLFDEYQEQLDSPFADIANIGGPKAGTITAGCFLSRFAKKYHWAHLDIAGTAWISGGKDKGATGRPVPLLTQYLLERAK
smiles,measurement,setting,value
[Mn+2] [Mn^2+],"k1, best-fitted value","PaPepA [1]; F + Mn = E1, global fit of MTO and STO data",1000 ± 53 μM^–1 s^–1
same,molar excess of metal over PaPepA at half maximal rate,PaPepA [1]; [3],24 fold
same,molar excess of metal over PaPepA at plateau,PaPepA [1]; [3],300 fold
same,KACT,"PaPepA [2]; 5 % PEG 8000, MnCl2 varied",0.19 ± 0.03
same,kcat/KACT,"PaPepA [2]; 5 % PEG 8000, MnCl2 varied",2.2 ± 0.4
same,kcat,"PaPepA [2]; 5 % PEG 8000, labelled component varied, other saturating, in 1/s",0.43 ± 0.02

# Reference: PMC10666288, “Unveiling the Catalytic Mechanism of a Processive Metalloaminopeptidase” (Biochemistry, 2023)
